# From publication PMC8608343 (PLoS ONE, 2021)
# Legend:
# [1] = test system: Leishmania donovani promastigotes; assay: Antileishmanial activity against promastigotes (MTT assay); format: cell-based; conditions: for IC50: Leishmania donovani, 96 hrs at 25° C, MTT, mean of three experiments, read-out: IC50 (μg/ml) ±SD promastigote; for Therapeutic Index (TC50/IC50) promastigotes: TC50 RAW / IC50 promastigote
# From the text: Amphotericin B was used as a positive control. The 3-(4,5-Dimethylthiazol-2-yl)-2,5-diphenyltetrazolium bromide (MTT) assay was used to determine the parasite viability as previously described.
# [2] = test system: Leishmania donovani promastigotes; assay: Growth kinetics and cytocidal/cytostatic (growth reversibility) assay; format: cell-based; conditions: 1 μg/ml, 120 hrs treatment, then 96 hrs in fresh media
# Procedure: The compounds (at 1 μg/ml) were tested for their effects on the growth kinetic pattern against the promastigotes of L. donovani. The parasite cells (2 x 10^5 cells/ml) were incubated at 25° C in the presence of the test compounds in M199 supplemented with 10% FBS. Amphotericin B treated parasites (0–50 μg/ml) were used as the positive control while the untreated promastigotes in medium alone served as the negative control. Viable cells were counted every 24 hrs for a total of 120 hrs as indicated in previous studies.
# The cytocidal/cytostatic effect of the test compounds were assessed by analyzing the treated and untreated parasites after 120 hrs of incubation. Cells were washed twice with fresh M199, resuspended in complete M199 media and incubated further for 96 hrs. The viable cells were then counted microscopically.
# O+ human red blood cells = assay: Haemolytic potential; conditions: 2% haematocrit, up to 100 μg/ml
# Procedure: The compounds were tested against the O^+ human red blood cells (obtained from the Malaria laboratory of WACCBIP) at a density of 2% haematocrit for their ability to lyse erythrocytes upon incubation. Here, a concentration of up to 100 μg/ml of compounds was used, and the 50% haemolytic concentration (HC50) of the compounds were determined by analysis of dose-response curves as described.
# [3] = test system: Leishmania donovani promastigotes; assay: Externalization of phosphatidylserine, Annexin V-FITC / PI flow cytometry; format: cell-based; conditions: 2x IC50, 24 hrs; for effect on externalization of phosphatidylserine (apoptotic potential): p-value = 0.9926
# Procedure: A double staining of treated/ untreated promastigotes of Leishmania donovani (2 x 10^5 cells/ml) with Annexin V-FITC and Propidium Iodide (PI) was done to determine the apoptotic and necrotic effects of the some of the established cytocidal compounds amongst the eighteen MMV compounds studied. Treatment was set at 2x IC50 concentrations of the respective test compounds against a negative control of untreated promastigote cells in a 24 hrs incubation period. The cells were then prepared using the Annexin V-FITC apoptosis detection kit following the Sigma protocol (Catalog Number: APOAF). Further treatment and analysis of cells was done as shown previously.
# [4] = test system: RAW 264.7 murine macrophage cell line; assay: Cytotoxicity against mammalian RAW macrophage cell line (MTT assay); conditions: 48 hrs, 50% cytotoxic concentration
# From the text: Here, amphotericin B was used as a positive control and the negative control was untreated RAW cell line.
# [5] = test system: Leishmania donovani amastigotes in RAW macrophage cells; assay: Antileishmanial activity against macrophage-amastigotes (MTT assay); format: cell-based; conditions: for IC50: Leishmania donovani, Macrophage, amastigotes in RAW macrophages, MTT, read-out: IC50 (μg/ml) ±SD amastigote; for Therapeutic Index (TC50/IC50) amastigotes: TC50 RAW / IC50 amastigote
# Procedure: The RAW macrophage cells were infected with promastigotes at a density of 1:10 ratio, respectively for 12 hrs and the non-phagocytosed promastigotes and media removed by aspiration. The RAW macrophages cells containing the internalized amastigote cells were treated with the compounds to test for their growth inhibitory potentials as previously described. The 3-(4,5-Dimethylthiazol-2-yl)-2,5-diphenyltetrazolium bromide (MTT) assay was also used to determine the parasite viability. […] was measured with a Varioskan Lux Elisa plate reader at a wavelength of 570 nm.
# [6] = test system: Leishmania donovani promastigotes; assay: Cell cycle analysis by flow cytometry; format: cell-based; conditions: 2x IC50, 24 hrs, versus untreated
# Procedure: The analysis was done using the protocol as designed in the Guava cell cycle reagent manual (catalog No. 4500–0220). […] Both treated and untreated Leishmania cells were incubated for 24 hrs, samples read using a flow cytometer (BD LSR Fortessa X-20 analyzer BD Biosciences), and the respective cell counts analyzed in the G0/G1, S and G2/M Phases. Data generated was further analyzed using the FlowJo V10 software.
# [7] = test system: Leishmania donovani promastigotes; assay: Morphological and mitochondrion effects by fluorescence microscopy (DAPI, MitoTracker); format: cell-based
# Procedure: Their mitochondrial integrity were analyzed using a slightly modified DAPI and Mitotracker dye protocol as described by Amisigo and colleagues.
# [8] = test system: Leishmania donovani promastigotes; assay: ROS generation in treated promastigotes (H2DCFDA); format: cell-based; conditions: 100, 50 or 25 μM, 72 hrs
# Procedure: The degree of reactive oxygen species (ROS) production in treated promastigote and amastigote cells of L. donovani were assessed using the H2DCFDA (2’,7’-dichlorodihydrofluorescein diacetate) rich fluorescent dye (MAK145 Sigma-Aldrich) ROS detection kit. […] Amoxicillin was used as a positive control for pro-oxidative generation while Vitamin C was used as a positive control for anti-oxidative potential. The treated and untreated cells were then suspended in PBS, washed, and resuspended in PBS, then incubated with the ROS detection master mix for 1 hr as instructed by the protocol. The cells were analyzed for intracellular ROS generation by measuring the fluorescence intensity which is proportional to the ROS production level using the Varioskan Lux Elisa microplate reader (Thermo Fischer Scientific, USA) at a wavelength of 605 nm.
# Leishmania donovani [9] = conditions: cited from earlier work
# Leishmania donovani [10] = test system: Leishmania donovani; parameters: method as in PMID 33268145; conditions: dosed at 50 mg/kg, mouse model of visceral leishmaniasis; cited from earlier work
smiles,measurement,setting,value
"CC1COC(Cn2cncn2)(c2ccc(Oc3ccc(Cl)cc3)cc2Cl)O1 (stereo not shown) [Compound C06A, Difenoconazole, reference compound]",IC50,[1],0.21 ± 0.008 µg/mL
same,Therapeutic Index (TC50/IC50) promastigotes,[1],476.19
same,cytocidal/cytostatic effect upon drug withdrawal,[2],cytocidal effect
same,HC50,O+ human red blood cells,>100 µg/mL
same,more necrotic cells compared to negative control,[3],~17%
same,effect on externalization of phosphatidylserine (apoptotic potential),[3],none of the compounds showed any significant effects
same,TC50 (μg/ml) ±SD RAW,[4],>100 µg/mL
same,IC50,[5],4.6 ± 0.004 µg/mL
same,Therapeutic Index (TC50/IC50) amastigotes,[5],21.74
same,increase in parasites at the S phase,[6],1.5 fold
same,cells with lost kinetoplast DNA and enlarged nuclear DNA,"[7]; 2x IC50, 24 hrs",60%
same,morphological / mitochondrial changes after 72 hrs,"[7]; 2x IC50, 72 hrs",parasite clearance in most fields
Cc1noc(C)c1COc1cccc(C(=O)N=c2[nH]cccc2C)c1 [Compound D05A],IC50,[1],0.2 ± 0.02 µg/mL
same,Therapeutic Index (TC50/IC50) promastigotes,[1],500
same,cytocidal/cytostatic effect upon drug withdrawal,[2],cytocidal effect
same,HC50,O+ human red blood cells,>100 µg/mL
same,more necrotic cells compared to negative control,[3],about 6.5%
same,effect on externalization of phosphatidylserine (apoptotic potential),[3],none of the compounds showed any significant effects
same,TC50 (μg/ml) ±SD RAW,[4],>100 µg/mL
same,IC50,[5],3.8 ± 0.03 µg/mL
same,Therapeutic Index (TC50/IC50) amastigotes,[5],26.32
same,increase in parasites at the S phase,[6],1.5 fold
same,morphological / mitochondrial changes after 24 hrs,"[7]; 2x IC50, 24 hrs",did not show any obvious abnormalities
same,morphological / mitochondrial changes after 72 hrs,"[7]; 2x IC50, 72 hrs",most of the fields had total parasite clearance
same,nuclear/ kinetoplast DNA degenerated,"[7]; 2x IC50, 72 hrs",90%
same,ROS generation effect in promastigotes,[8],anti-oxidative effect
C1CCCC1.CN(CCn1cc(C2CCCC2)nn1)c1ccnc2cc(Cl)ccc12.I.[Fe] [CQFC1],efficacy among water-soluble ferrocenylquinoline derivatives,Leishmania donovani [9],most efficacious of the molecules
O=[N+]([O-])c1cn2c(n1)O[C@@H](COc1ccc(-c3ccc(F)cc3)nc1)CC2 [DNDI-0690],parasite burden reduction,Leishmania donovani [10],96%
